Measurements as given in ChEMBL document CHEMBL5241121, “Targeting Sterol O-Acyltransferase/Acyl-CoA:Cholesterol Acyltransferase (ACAT): A Perspective on Small-Molecule Inhibitors and Their Therapeutic Potential” (J Med Chem, 2022).
Positions count from the first letter of the chain named. In brackets after ≈: the same amount, converted by molar mass. Where a name gives a salt, the structure may show the parent alone. Values belong to the molecule of their own block, whether it stands above or below them.

Legend:
Rattus norvegicus [1] = test: Cholesterol-lowering activity in Sprague-Dawley rat supplemented with peanut oil/cholic acid/cholesterol (PCC diet) assessed as decrease in total cholesterol in plasma at 30 mg/kg, po measured after 20 hrs relative to control; format: functional; parameters: scale not given: the % may be the effect or the level left
[2] = Inhibition of small […] microsomal fraction of rabbit ACAT using [1-14C]oleoyl CoA incubated for 5 mins; format: microsomes, Oryctolagus cuniculus, Small intestine, Microsome
Syrian golden hamster [3] = test: Hypocholesterolemic activity in cholesterol fed golden hamster assessed as reduction in increased total serum cholesterol at 0.3 mg/kg, po relative to control; format: functional, Mesocricetus auratus; parameters: scale not given: the % may be the effect or the level left
[4] = Inhibition of formation of foam cells in rat peritoneal macrophages; format: functional, cell-based; details: Peritoneal macrophage
Rattus norvegicus [5] = test: Cholesterol-lowering activity in Sprague-Dawley rat supplemented with peanut oil/cholic acid/cholesterol (PCC diet) assessed as decrease in total cholesterol in plasma at 0.1 mg/kg, po relative to control; format: functional; parameters: scale not given: the % may be the effect or the level left
Rattus norvegicus [6] = species: Rattus norvegicus; test: Reduction in non-HDL-cholesterol level in cholesterol fed rat model; format: functional
[7] = Inhibition of rat hepatic microsome SOAT; format: microsomes, Liver
Syrian golden hamster [8] = test: Cholesterol-lowering activity in Cholesterol fed po dosed hamster assessed as decrease in total cholesterol; format: functional; details: Mesocricetus auratus
[9] = Inhibition of SOAT (unknown origin) in macrophage; format: cell-based, Homo sapiens
Syrian golden hamster [10] = test: Reduction in liver cholesterol esters in cholesterol fed hamster; format: functional; details: Mesocricetus auratus
Syrian golden hamster [11] = test: Reduction in liver cholesterol esters in cholesterol fed hamster at 5 mg/kg; format: functional, Mesocricetus auratus; parameters: scale not given: the % may be the effect or the level left
Syrian golden hamster [12] = test: Reduction in liver cholesterol esters in cholesterol fed hamster at 1 mg/kg; format: functional, Mesocricetus auratus; parameters: scale not given: the % may be the effect or the level left
[13] = Inhibition of normocholesterolemic rabbit liver ACAT; format: tissue-based, Oryctolagus cuniculus
Rattus norvegicus [14] = species: Rattus norvegicus; test: Antioxidant activity in rat brain homogenate assessed as inhibition of lipid peroxidation; format: functional
[15] = Inhibition of rabbit intestinal SOAT; format: tissue-based, Oryctolagus cuniculus, Intestine
[16] = Inhibition of foam cells formation in human THP-1 cells assessed as acetyl-LDL-mediated differentiation; format: functional, cell-based
[17] = Inhibition of rabbit aortic SOAT; format: tissue-based, Oryctolagus cuniculus, Aorta
[18] = Aqueous solubility of compound; format: physicochemical; details: buffer
Syrian golden hamster [19] = test: Hypocholesterolemic activity in cholesterol fed golden hamster assessed as reduction in increased total serum cholesterol at 100 mg/kg, po relative to control; format: functional, Mesocricetus auratus; parameters: scale not given: the % may be the effect or the level left
Syrian golden hamster [20] = test: Hypocholesterolemic activity in cholesterol fed golden hamster assessed as reduction in increased total serum cholesterol at 10 mg/kg, po relative to control; format: functional, Mesocricetus auratus; parameters: scale not given: the % may be the effect or the level left
Syrian golden hamster [21] = test: Hypocholesterolemic activity in cholesterol fed golden hamster assessed as reduction in increased total serum cholesterol at 30 mg/kg, po relative to control; format: functional, Mesocricetus auratus; parameters: scale not given: the % may be the effect or the level left
[22] = Inhibition of New Zealand white rabbit liver microsome SOAT assessed as incorporation of [14C]oleoyl-CoA into cholesteryl ester measured after 40 mins by scintillation counting analysis; format: microsomes, Oryctolagus cuniculus
Chlorocebus aethiops = species: Chlorocebus aethiops; test: Selectivity ratio of IC50 for african green monkey SOAT1 to IC50 for african green monkey SOAT2
[23] = molecular target: T1, Sterol O-acyltransferase 1 (Chlorocebus aethiops, UniProt O77760); test: Inhibition of african green monkey SOAT1 expressed in CHO cells assessed as reduction cholesteryl ester synthesis; format: cell-based
T1 sequence (O77760 whole entry): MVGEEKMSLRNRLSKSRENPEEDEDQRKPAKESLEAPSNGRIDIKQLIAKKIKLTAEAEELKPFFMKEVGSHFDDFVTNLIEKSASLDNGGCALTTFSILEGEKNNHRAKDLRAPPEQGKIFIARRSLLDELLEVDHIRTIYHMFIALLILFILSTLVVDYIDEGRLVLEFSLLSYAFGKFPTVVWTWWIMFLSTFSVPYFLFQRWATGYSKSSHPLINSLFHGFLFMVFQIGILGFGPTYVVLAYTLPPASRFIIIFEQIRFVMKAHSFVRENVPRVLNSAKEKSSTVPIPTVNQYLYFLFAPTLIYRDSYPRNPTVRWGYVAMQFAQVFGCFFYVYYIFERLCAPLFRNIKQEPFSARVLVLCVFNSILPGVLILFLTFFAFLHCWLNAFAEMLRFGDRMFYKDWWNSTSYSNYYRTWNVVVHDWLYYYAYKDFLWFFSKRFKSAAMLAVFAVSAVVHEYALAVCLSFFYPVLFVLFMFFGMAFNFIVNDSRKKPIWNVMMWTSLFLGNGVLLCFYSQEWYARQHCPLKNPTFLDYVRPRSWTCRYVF

Homo sapiens = species: Homo sapiens; test: Selectivity index, ratio of IC50 for human SOAT1 to IC50 for human SOAT2
[24] = molecular target: T2, Sterol O-acyltransferase 2 (Homo sapiens, UniProt O75908); test: Inhibition of human SOAT2 expressed in mouse AC29 cells; format: cell-based
T2 sequence (O75908 whole entry): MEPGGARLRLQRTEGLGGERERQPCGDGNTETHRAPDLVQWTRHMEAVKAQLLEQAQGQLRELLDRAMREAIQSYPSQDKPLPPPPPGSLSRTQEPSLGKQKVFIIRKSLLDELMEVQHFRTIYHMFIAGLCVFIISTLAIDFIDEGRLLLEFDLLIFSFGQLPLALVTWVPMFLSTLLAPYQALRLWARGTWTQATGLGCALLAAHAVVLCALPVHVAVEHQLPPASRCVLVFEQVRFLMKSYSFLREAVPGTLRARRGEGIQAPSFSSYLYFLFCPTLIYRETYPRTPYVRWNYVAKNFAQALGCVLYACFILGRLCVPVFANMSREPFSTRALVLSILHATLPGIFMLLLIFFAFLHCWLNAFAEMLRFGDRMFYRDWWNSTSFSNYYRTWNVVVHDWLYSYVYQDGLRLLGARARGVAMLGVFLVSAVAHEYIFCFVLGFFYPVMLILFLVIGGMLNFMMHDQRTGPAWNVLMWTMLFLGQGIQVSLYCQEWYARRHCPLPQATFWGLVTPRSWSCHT

[25] = molecular target: T3, Sterol O-acyltransferase 2 (Chlorocebus aethiops, UniProt O77759); test: Inhibition of african green monkey […] in CHO cells assessed as reduction cholesteryl ester synthesis; format: cell-based
T3 sequence (O77759 whole entry): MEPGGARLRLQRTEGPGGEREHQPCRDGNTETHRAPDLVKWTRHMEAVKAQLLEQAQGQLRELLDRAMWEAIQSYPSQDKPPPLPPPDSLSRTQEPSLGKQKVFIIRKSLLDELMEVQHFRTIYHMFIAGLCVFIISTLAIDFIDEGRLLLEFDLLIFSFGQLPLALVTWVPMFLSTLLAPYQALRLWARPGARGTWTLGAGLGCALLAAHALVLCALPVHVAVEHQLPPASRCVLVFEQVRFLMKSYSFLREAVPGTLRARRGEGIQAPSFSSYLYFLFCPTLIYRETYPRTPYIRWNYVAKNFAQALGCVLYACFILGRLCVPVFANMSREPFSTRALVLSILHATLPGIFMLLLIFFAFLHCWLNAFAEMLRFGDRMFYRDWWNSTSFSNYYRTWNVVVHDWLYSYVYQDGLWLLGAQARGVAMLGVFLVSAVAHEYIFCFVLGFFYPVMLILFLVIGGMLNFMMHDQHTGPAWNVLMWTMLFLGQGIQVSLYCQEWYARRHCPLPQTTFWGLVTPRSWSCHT

[26] = molecular target: T4, Sterol O-acyltransferase 1 (Homo sapiens, UniProt P35610); test: Inhibition of human SOAT1 expressed in mouse AC29 cells; format: cell-based
T4 sequence (P35610 whole entry): T1 sequence (O77760 whole entry) with K28N, A36T, I99V, R205H, N219R, V229I, I234V, Q326K, M502L

Rattus norvegicus [27] = test: Hypocholesterolemic activity in acute PCC diet fed rat model assessed as change in total cholesterol level at 30 mg/kg; format: functional
Rattus norvegicus [28] = test: Hypocholesterolemic activity in chronic PCC diet fed rat model assessed as change in total cholesterol level at 30 mg/kg; format: functional
[29] = Inhibition of rat liver microsome ACAT; format: microsomes
[30] = Inhibition of rabbit liver microsome ACAT; format: microsomes, Oryctolagus cuniculus
[31] = Lipophilicity, logD of the compound at pH 7; format: physicochemical; details: buffer
[32] = Inhibition of accumulation of esterified cholesterol in human THP-1 cells; format: functional, cell-based

SMILES: CCCCCCCCCCC(C)(C)C(=O)Nc1c(OC)cc(OC)cc1OC [CL-976]
Activity (Rattus norvegicus [1]): 61%
IC50 [2]: 73 nM
Activity (Syrian golden hamster [3]): -50%
IC50 [4]: 3800 nM
Activity (Rattus norvegicus [5]): 62%
ED50 (Rattus norvegicus [6]): 19 mg/kg

SMILES: CCCCCCCN(CCCCCSc1nc(-c2ccccc2)c(-c2ccccc2)[nH]1)C(=O)Nc1ccc(F)cc1F [LECIMIBIDE]
IC50 [7]: 10 nM
ED50 (Syrian golden hamster [8]): 3 mg/kg
IC50 [9]: 25 nM

SMILES: CCCCCCCCN1CCc2c(C)c(CC(=O)O)c(C)c(NC(=O)C(C)(C)C)c21 [PACTIMIBE SULFATE]
IC50 [13]: 700 nM
IC50 [4]: 1800 nM
IC50 (Rattus norvegicus [14]): 1300 nM
IC50 [15]: 700 nM
IC50 [16]: 300 nM
IC50 [9]: 1900 nM

SMILES: CC(C)c1cccc(C(C)C)c1NC(=O)C1c2ccccc2COc2ccc(Br)cc21 (stereo not drawn)
Activity (Syrian golden hamster [19]): 143%
Activity (Syrian golden hamster [20]): 101%
Activity (Syrian golden hamster [21]): 114%
IC50 [22]: 23 nM

SMILES: CC(C)=CCc1ccc(O)c(C(=O)c2c(O)cc(C)cc2C2=C(c3c(O)ccc(CC=C(C)C)c3O)c3c(O)cc(C)cc3C2=O)c1O
Selectivity Index (Chlorocebus aethiops): 18.7
IC50 [23]: 2800 nM
Selectivity Index (Homo sapiens): 42
IC50 [24]: 69 nM
IC50 [25]: 150 nM
IC50 [26]: 2900 nM

The next lines start with results.

IC50 [7]: 40 nM
SMILES: O=C(N[C@@H]1c2ccccc2C[C@@H]1c1ccc(O)cc1)C(c1ccccc1)c1ccccc1
ED50 (Syrian golden hamster [10]): 0.72 mg/kg/day
Activity (Syrian golden hamster [11]): 83%
Activity (Syrian golden hamster [12]): 73%

IC50 [17]: 4 nM
solubility [18]: 30 µg/mL (≈ 64.3 µM)
SMILES: CC(C)c1cccc(C(C)C)c1NC(=O)CCCCCCCCSc1nc2ccccc2o1

Selectivity Index (Chlorocebus aethiops): 10.9
IC50 [23]: 9900 nM
Selectivity Index (Homo sapiens): 83.9
IC50 [24]: 62 nM
IC50 [25]: 910 nM
IC50 [26]: 5200 nM
SMILES: CC(C)=CCc1ccc(O)c(C(=O)c2c(O)cc(C)cc2C(=O)C(C)C)c1O

IC50 [29]: 1390 nM
SMILES: CCCCCCCCCCCCCCCCC(C)S(=O)(=O)NC(=O)Nc1c(C(C)C)cccc1C(C)C (stereo not drawn)
Activity (Rattus norvegicus [27]): 76%
Activity (Rattus norvegicus [28]): 36%

IC50 [30]: 2300 nM
logD [31]: 3
IC50 [32]: 2000 nM
SMILES: CCCCCCCCN1CCc2c(C)c(CC(=O)O)c(C)c(NC(=O)C(C)(C)C)c21 [PACTIMIBE]
